In patent US20080051457A1, “Optically Active Phthalamide Derivative, Agricultural or Horticultural Insecticide, and Method of Using the Same” (priority 2004, published 2008):

Test: logP (pH2.3), physical properties of Tables 1 to 3
Format: physicochemical
Settings: not given
Text: However, the present invention is not limited to these compounds. In the tables, the term “physical properties” means a melting point or logp. The symbol “Me” represents a methyl group, “Et” represents an ethyl group, “Pr” represents a propyl group, “-n” represents normal, and “-i” represents iso.

SMILES | Physical properties logP(pH2.3)
CSC[C@@H](NC(=O)c1c(I)cccc1C(=O)Nc1ccc(C(F)(C(F)(F)F)C(F)(F)F)cc1C)C(C)C [Compound 1-354] | 4.97
Cc1cc(C(F)(C(F)(F)F)C(F)(F)F)ccc1NC(=O)c1cccc(I)c1C(=O)N[C@@H](CC(C)C)C[S+](C)[O-] (some centres unmarked) [Compound 1-364] | 3.39
CSC[C@H](CC(C)C)NC(=O)c1c(I)cccc1C(=O)Nc1ccc(C(F)(C(F)(F)F)C(F)(F)F)cc1C [Compound 1-363] | 5.24
CC[C@@H](CS(C)(=O)=O)NC(=O)c1c(Cl)cccc1C(=O)Nc1ccc(C(F)(C(F)(F)F)C(F)(F)F)cc1C [Compound 1-341] | 3.31
Cc1cc(C(F)(C(F)(F)F)C(F)(F)F)ccc1NC(=O)c1cccc(Cl)c1C(=O)N[C@@H](CC(C)C)CS(C)(=O)=O [Compound 1-359] | 3.77
CC[C@@H](C[S+](C)[O-])NC(=O)c1c(Br)cccc1C(=O)Nc1ccc(C(F)(C(F)(F)F)C(F)(F)F)cc1C (some centres unmarked) [Compound 1-343] | 2.83
CC[C@@H](CSC)NC(=O)c1c(Br)cccc1C(=O)Nc1ccc(C(F)(C(F)(F)F)C(F)(F)F)cc1C [Compound 1-342] | 4.54
Cc1cc(C(F)(C(F)(F)F)C(F)(F)F)ccc1NC(=O)c1cccc(Br)c1C(=O)N[C@H](C[S+](C)[O-])C(C)C (some centres unmarked) [Compound 1-352] | 3.06
CCC(C[S+](C)[O-])NC(=O)c1c(Cl)cccc1C(=O)Nc1ccc(C(F)(C(F)(F)F)C(F)(F)F)cc1C (mixture of isomers) [Compound 1-340] | 2.78
CC[C@@H](CSC)NC(=O)c1c(Cl)cccc1C(=O)Nc1ccc(C(F)(C(F)(F)F)C(F)(F)F)cc1C [Compound 1-339] | 4.47
CSC[C@@H](NC(=O)c1c(Cl)cccc1C(=O)Nc1ccc(C(F)(C(F)(F)F)C(F)(F)F)cc1C)C(C)C [Compound 1-348] | 4.77
Cc1cc(C(F)(C(F)(F)F)C(F)(F)F)ccc1NC(=O)c1cccc(I)c1C(=O)N[C@@H](CC(C)C)CS(C)(=O)=O [Compound 1-365] | 3.87
CSC[C@H](CC(C)C)NC(=O)c1c(Cl)cccc1C(=O)Nc1ccc(C(F)(C(F)(F)F)C(F)(F)F)cc1C [Compound 1-357] | 5.11

Same assay, conditions: Table 1

SMILES | Physical properties: logP
Cc1c(NC(=O)c2cccc(I)c2C(=O)N[C@@H](C)CS(C)(=O)=O)ccc(Br)c1F [Compound 1-149] | 2.29
CSC[C@H](C)NC(=O)c1c(Cl)cccc1C(=O)Nc1ccc(C(F)(F)C(F)(F)F)c(F)c1C [Compound 1-213] | 3.88
CSC[C@H](C)NC(=O)c1c(I)cccc1C(=O)Nc1ccc(C(F)(F)C(F)(F)F)c(Cl)c1C [Compound 1-144] | 4.20
CCSC[C@H](C)NC(=O)c1c(I)cccc1C(=O)Nc1ccc(C(F)(F)C(F)(F)F)c(Cl)c1C [Compound 1-111] | 4.53
CCS(=O)(=O)C[C@H](C)NC(=O)c1c(I)cccc1C(=O)Nc1ccc(Br)c(Br)c1C [Compound 1-131] | 2.67
CCSC[C@H](C)NC(=O)c1c(Cl)cccc1C(=O)Nc1ccc(C(F)(F)C(F)(F)F)c(Cl)c1C [Compound 1-210] | 4.37
CCS(=O)(=O)C[C@H](C)NC(=O)c1c(I)cccc1C(=O)Nc1ccc(C(F)(F)C(F)(F)F)c(F)c1C [Compound 1-110] | 3.15
CCS(=O)(=O)C[C@H](C)NC(=O)c1c(Br)cccc1C(=O)Nc1ccc(Br)c(F)c1C [Compound 1-179] | 2.39
CC[S+]([O-])C[C@H](C)NC(=O)c1c(Cl)cccc1C(=O)Nc1ccc(C(F)(C(F)(F)F)C(F)(F)F)c(F)c1C (some centres unmarked) [Compound 1-202] | 2.86
CCS(=O)(=O)C[C@H](C)NC(=O)c1c(Br)cccc1C(=O)Nc1ccc(OC(F)(F)F)c(F)c1C [Compound 1-191] | 2.69
CCS(=O)(=O)C[C@H](C)NC(=O)c1c(Br)cccc1C(=O)Nc1ccc(C(F)(F)C(F)(F)F)c(F)c1C [Compound 1-173] | 3.06
CCSC[C@H](C)NC(=O)c1c(I)cccc1C(=O)Nc1ccc(I)c(F)c1C [Compound 1-132] | 3.77
CCSC[C@H](C)NC(=O)c1c(Br)cccc1C(=O)Nc1ccc(Br)c(Br)c1C [Compound 1-186] | 3.78
Cc1c(NC(=O)c2cccc(I)c2C(=O)N[C@@H](C)CS(C)(=O)=O)ccc(C(F)(C(F)(F)F)C(F)(F)F)c1F [Compound 1-143] | 3.27
CCS(=O)(=O)C[C@H](C)NC(=O)c1c(I)cccc1C(=O)Nc1ccc(C(F)(C(F)(F)F)C(F)(F)F)c(F)c1C [Compound 1-107] | 3.47
CCSC[C@H](C)NC(=O)c1c(I)cccc1C(=O)Nc1ccc(C(F)(F)C(F)(F)F)c(F)c1C [Compound 1-108] | 4.36
CCSC[C@H](C)NC(=O)c1c(I)cccc1C(=O)Nc1cc(F)c(OC(F)(F)F)cc1Cl [Compound 1-117] | 4.26
CCS(=O)(=O)C[C@H](C)NC(=O)c1c(Br)cccc1C(=O)Nc1cc(F)c(OC(F)(F)F)cc1Cl [Compound 1-194] | 2.96
CCc1cc(C(F)(C(F)(F)F)C(F)(F)F)ccc1NC(=O)c1cccc(Br)c1C(=O)N[C@@H](C)CSC [Compound 1-219] | 4.42
CSC[C@H](C)NC(=O)c1c(I)cccc1C(=O)Nc1ccc(C(F)(C(F)(F)F)C(F)(F)F)c(F)c1C [Compound 1-141] | 4.41
CCSC[C@H](C)NC(=O)c1c(Br)cccc1C(=O)Nc1ccc(I)c(F)c1C [Compound 1-183] | 3.66
Cc1c(NC(=O)c2cccc(Br)c2C(=O)N[C@@H](C)CS(C)(=O)=O)ccc(C(F)(C(F)(F)F)C(F)(F)F)c1F [Compound 1-170] | 3.21

SMILES | Physical properties: logP
CCS(=O)(=O)C[C@H](C)NC(=O)c1c(Br)cccc1C(=O)Nc1cc(F)c(OC(F)(F)F)cc1Br [Compound 1-197] | 2.99
Cc1c(NC(=O)c2cccc(I)c2C(=O)N[C@@H](C)C[S+](C)[O-])ccc(C(F)(C(F)(F)F)C(F)(F)F)c1F (some centres unmarked) [Compound 1-142] | 2.78
CCS(=O)(=O)C[C@H](C)NC(=O)c1c(Br)cccc1C(=O)Nc1ccc(Br)c(Br)c1C [Compound 1-188] | 2.59
CCS(=O)(=O)C[C@H](C)NC(=O)c1c(I)cccc1C(=O)Nc1cc(F)c(OC(F)(F)F)cc1Cl [Compound 1-119] | 3.07
CCS(=O)(=O)C[C@H](C)NC(=O)c1c(Cl)cccc1C(=O)Nc1ccc(C(F)(C(F)(F)F)C(F)(F)F)c(F)c1C [Compound 1-203] | 3.34
CCS(=O)(=O)C[C@H](C)NC(=O)c1c(I)cccc1C(=O)Nc1ccc(OC(F)(F)F)c(Br)c1Cl [Compound 1-164] | 3.19
CCc1cc(C(F)(C(F)(F)F)C(F)(F)F)ccc1NC(=O)c1cccc(Cl)c1C(=O)N[C@@H](C)CSC [Compound 1-216] | 4.36
Cc1c(NC(=O)c2cccc(Br)c2C(=O)N[C@@H](C)C[S+](C)[O-])ccc(C(F)(C(F)(F)F)C(F)(F)F)c1F (some centres unmarked) [Compound 1-169] | 2.72
CC[S+]([O-])C[C@H](C)NC(=O)c1c(Br)cccc1C(=O)Nc1ccc(C(F)(C(F)(F)F)C(F)(F)F)c(F)c1C (some centres unmarked) [Compound 1-199] | 2.90
CCS(=O)(=O)C[C@H](C)NC(=O)c1c(I)cccc1C(=O)Nc1ccc(OC(F)(F)F)c(Cl)c1Cl [Compound 1-161] | 3.18
CCS(=O)(=O)C[C@H](C)NC(=O)c1c(Br)cccc1C(=O)Nc1ccc(C(F)(F)F)c(F)c1C [Compound 1-182] | 2.66
CSC[C@H](C)NC(=O)c1c(I)cccc1C(=O)Nc1ccc(Br)c(F)c1C [Compound 1-147] | 3.30
CCSC[C@H](C)NC(=O)c1c(Br)cccc1C(=O)Nc1cc(F)c(OC(F)(F)F)cc1Cl [Compound 1-192] | 4.16
CCSC[C@H](C)NC(=O)c1c(Br)cccc1C(=O)Nc1ccc(C(F)(F)C(F)(F)F)c(F)c1C [Compound 1-171] | 4.26
CCS(=O)(=O)C[C@H](C)NC(=O)c1c(Br)cccc1C(=O)Nc1ccc(C(F)(F)C(F)(F)F)c(Cl)c1C [Compound 1-176] | 3.19
Cc1c(NC(=O)c2cccc(Cl)c2C(=O)N[C@@H](C)CS(C)(=O)=O)ccc(C(F)(F)C(F)(F)F)c1F [Compound 1-215] | 2.82
CSC[C@H](C)NC(=O)c1c(Br)cccc1C(=O)Nc1ccc(C(F)(F)C(F)(F)F)c(F)c1C [Compound 1-165] | 3.93
CSC[C@H](C)NC(=O)c1c(I)cccc1C(=O)Nc1ccc(C(F)(F)F)c(F)c1C [Compound 1-156] | 3.58
CCSC[C@H](C)NC(=O)c1c(Br)cccc1C(=O)Nc1ccc(C(F)(C(F)(F)F)C(F)(F)F)c(F)c1C [Compound 1-198] | 4.63
CSC[C@H](C)NC(=O)c1c(I)cccc1C(=O)Nc1ccc(OC(F)(F)F)c(F)c1C [Compound 1-138] | 3.59
Cc1c(NC(=O)c2cccc(I)c2C(=O)N[C@@H](C)C[S+](C)[O-])ccc(C(F)(F)C(F)(F)F)c1F (some centres unmarked) [Compound 1-136] | 2.50
